From US20060160893A1, “Method for enhancing the quality of berry fruit” (priority 2001, published 2006)

Assays:
[1] = test system: Botrytis gray mold of red raspberry; experiment: Example 6: field application, Botrytis gray mold of red raspberry, storage evaluation; type: in vivo
Protocol: (§1) All examples are conducted under field conditions using accepted grower practices. The mixtures of I and II are applied to field grown plants, not as a post harvest berry treatment.
(§2) The use of corrected means is standard practice in field evaluations of pesticides. Corrected means are calculated as follows: [formula]
(§3) In the following examples, Fungicide A=a mixture of cyprodinil (I) and fludioxonil (II) (mixing ratio 1.5:1) applied as a 62.5% by weight water dispersible granule (WG) formulation.
Fungicide A is applied to field grown red raspberry and shelf-life evaluations made.
Healthy berries are harvested from each treatment and placed into storage and evaluated for Botrytis control (see table below).

[2] = test system: Botrytis gray mold of strawberry; experiment: Example 1: field application, Botrytis gray mold of strawberry, cool storage shelf-life evaluation; type: in vivo; settings: for % Control: 7 day storage, relative to untreated check
Protocol: as §1, §2, §3
Performance of Fungicide a Against Botrytis Gray Mold of Strawberry. Fungicide A is applied in the field; berries are then harvested and placed into cool storage for shelf-life evaluations (no additional sprays were made after harvest).

O=C1C2CC=CCC2C(=O)N1SC(Cl)(Cl)Cl (stereo not drawn) [Captan, captan]
% Botrytis Infect Berries (6 Day Storage Rating) [1]: 88.2%
% Botrytis Disease Control (6 Day Storage Rating) ([1]; relative to untreated check): 7%
% Control ([2]; inoculated): 28%
% Control ([2]; non-inoculated): 70%
% Pest Incidence Fruit Rating 7 Day Storage Rating Inoculated ([2]; strawberry variety 'Chandler', inoculated): 51%
% Pest Incidence Fruit Rating 7 Day Storage Rating Non-inoculated ([2]; strawberry variety 'Chandler', non-inoculated): 6%
